Patent US20090081212A1, “USE AND TARGETING OF CD98 LIGHT-CHAIN PROTEINS IN THERAPIES FOR THYROID HORMONE DISORDERS” (The Government of the U.S.A., as Represented by the …, priority 2000, published 2009)

What was measured:
[1] = test system: 4F2hc-IU12 heterodimers; assay: Thyroid hormone and amino acid transport by 4F2hc-IU12 heterodimers expressed in Xenopus oocytes (radiotracer uptake and its inhibition); format: cell-based, Xenopus laevis; conditions: for inhibition of 4F2hc-IU12 induced [3H]tryptophan uptake, in words: 1 μM tryptophan tracer, inhibitors 10 μM T4, 5 mM BCH, increasing unlabelled T3 or tryptophan; for uptake of [3H]phenylalanine and [3H]tryptophan: 50 μM amino acid, preliminary experiments; for uptake of [3H]phenylalanine and [3H]tryptophan / Vmax of 4F2hc-IU12 induced transport / Km: 4F2hc-IU12 injected oocytes; for Vmax of 4F2hc-IU12 induced transport / Km: 4 days post-injection, TH 0.05-10 μM, 60 min uptake; for Km: read-out: apparent Km of 4F2hc-IU12 induced transport; for inhibition of 4F2hc-IU12 induced 0.1 μM TH (T3) uptake, in words: inhibitors 10 μM T3/T4, 5 mM BCH, 10 mM tryptophan, data shown for T3 only
Text: Xenopus laevis toads were purchased from the South African Xenopus Facility. Chemicals were obtained from Sigma (UK) with the exception of Collagenase A (Boehringer, UK) and Ultraspec water (Ambion, UK). Radiotracers were purchased from NEN (UK). cDNAs encoding IU12 (2.3 Kb EcoRI/ApaI fragment from pBluescriptSK-IU12) (Liang et al. 1997, Cell Res 7: 179-193) and human 4F2hc (1.85 Kb Ecor1/BamH1 fragment from pSP65-4F2) (Teixeira et al. 1987, J Biol Chem 262: 9574-9580) were subcloned into the multiple-cloning region of pSG5 (an SV-40 driven expression plasmid).
(§1) Oocytes were isolated by collagenase treatment (Peter et al. 1996, Biochem J 318: 915-922) of ovarian tissue obtained from mature female Xenopus laevis toads (South African Xenopus Facility). Defolliculated, stage V-V1 (prophase-arrested) oocytes were selected and maintained at 18° C. in Modified Barth's Medium (MBM) containing (in mM): 88 NaCl, 1 KCL, 2.4 NaHCO3, 0.82 MgSO4.7H2O, 0.66 NaNO3, 0.75 CaCl2x2H2O, 5.0 HEPES, pH 7.6 with Tris base, 10 mg/liter gentamycin sulphate. For DNA injection, oocytes were transferred into individual wells of Tetraski plates pre-filled with MBM and centrifuged at 500 g for 10 minutes at 18° C., which causes migration of the nucleus to the cell surface and facilitates nuclear injection (Mertz & Gurdon 1977, PNAS 395: 288-291). The visible nucleus of each oocyte was injected with 2 ng DNA in 15 nl Ultraspec water using a pneumatic delivery system (Peter et al. 1996, Biochem J 318: 915-922). For co-injection studies, 2 ng of both DNAs (i.e. 4F2hc/IU12) were injected. Nuclei of control oocytes were injected with Ultraspec water. Oocytes were incubated in MBM at 18° C. for 4 days to allow expression of injected DNA before experimentation.
(§2) All experiments were carried out at 22° C. using Na^+-free transport buffer (unless otherwise stated) containing 100 mM tetramethylammonium chloride (TMACl), 2 mM KCl; 1 mM CaCl2; 1 mM MgCl2; 10 mM HEPES, pH 7.5 with Tris). Radiolabelled amino acid uptake (3H-phenylalanine or ^3H-tryptophan over 30 min) was also measured (Peter et al. 1996, Biochem J 318: 915-922). BCH (5 mM) was used as a specific inhibitor of amino acid transport System L.
Data are expressed as mean values±standard error of the mean (S.E.M; n=number of observations). Experimental measurements in each batch of oocytes were made on 7-11 individual oocytes. Differences between mean values were assessed using Students unpaired t-test, with significance assigned at p<0.05.

[2] = test system: T3-dependent transcriptional activation of a luciferase reporter in BeWo cells; assay: T3-induced luciferase reporter activity in BeWo cells; format: cell-based, human; conditions: 24 h exposure
Experimental: FIG. 7. […] Infected cells were exposed to experimental conditions for 24 h prior to assay of luciferase activity.

[3] = test system: water-injected oocytes; assay: Basal radiotracer uptake in control (water-injected) Xenopus oocytes; format: cell-based, Xenopus laevis; conditions: for uptake of [3H]phenylalanine and [3H]tryptophan: 50 μM amino acid, water-injected cells
Experimental: as §1, §2

[4] = test system: BeWo placental choriocarcinoma cells; assay: Nuclear uptake of [125I]T3 in BeWo cells; format: cell-based, human
[5] = test system: T3-dependent activation of luciferase activity; assay: Thyroid-responsive luciferase reporter (TRE) in oocytes expressing 4F2hc-IU12; format: cell-based, Xenopus laevis; conditions: 5 mM BCH, 10 nM T3, 24 h; preliminary data from one batch of oocytes
Experimental: FIG. 6. […] Ratio of luminescent counts for each oocyte type compared to thyroid-responsive luciferase (TRE)-only injected oocytes. Data shown for n=4 batches (each 7-9 oocytes). […] 4/I/R/T—4F2hc/IU12/RXRα/TRβ co-injected oocytes. RXRα/TRβ (heterodimers of RXR, or 9-cis retinoic acid receptor, and TR)— nuclear receptors for TH; *, significant change in luciferase activity compared to TRE-only injected oocytes (p<0.05). […] All incubations were performed over a 24-hour time period.
Overexpression of the 4F2hc-IU12 heterodimer in oocytes produced a functional activation of System L transporter activity.

[6] = target: human 4F2 heavy-chain (4F2hc) glycoprotein (human) (UniProt P08195)

## N[C@@H](Cc1c[nH]c2ccccc12)C(=O)O [tryptophan]
[1]
  inhibition of 4F2hc-IU12 induced [3H]tryptophan uptake, in words: concentration-dependent inhibition
  uptake of [3H]phenylalanine and [3H]tryptophan: 120 pmol/oocyte.h
  Vmax of 4F2hc-IU12 induced transport: 180±54 pmol/oocyte.h
  Km: 70 µM
  inhibition of 4F2hc-IU12 induced 0.1 μM TH (T3) uptake, in words: significantly inhibited
[1]; 1 μM tryptophan, 4F2hc-IU12-injected oocytes
  control tryptophan uptake (absence of inhibitor): 10.2±0.4 pmol/oocyte.h
[2]
  effect on T3-dependent transcriptional activation of a luciferase reporter: inhibit
[3]; 1 μM tryptophan, water-injected oocytes
  control tryptophan uptake (absence of inhibitor): 2.1±0.1 pmol/oocyte.h
[3]
  uptake of [3H]phenylalanine and [3H]tryptophan: 10 pmol/oocyte.h
[4]
  effect on nuclear uptake of [125I]T3: inhibit

## N[C@@H](Cc1ccccc1)C(=O)O [phenylalanine]
[1]
  uptake of [3H]phenylalanine and [3H]tryptophan: 120 pmol/oocyte.h
[3]
  uptake of [3H]phenylalanine and [3H]tryptophan: 10 pmol/oocyte.h

## NC1(C(=O)O)CC2CCC1C2 (stereo not shown) [BCH, 2-endoamino-bicycloheptane-2-carboxylic acid]
[1]
  inhibition of 4F2hc-IU12 induced [3H]tryptophan uptake, in words: inhibited
  inhibition of 4F2hc-IU12 induced 0.1 μM TH (T3) uptake, in words: significantly inhibited
[5]
  effect on T3-dependent activation of luciferase activity in oocytes expressing 4F2hc-IU12: blocked
[2]
  effect on T3-dependent transcriptional activation of a luciferase reporter: inhibit
[4]
  effect on nuclear uptake of [125I]T3: inhibit

## NC(Cc1ccc(Oc2cc(I)c(O)c(I)c2)c(I)c1)C(=O)O (stereo not shown) [rT3, reverse tri-iodothyronine]
[1]; inhibitor 10 μM, n=3 preparations
  inhibition of induced 0.1 μM T3 uptake: 41±4%

## O=C(O)Cc1cc(I)c(Oc2ccc(O)c(I)c2)c(I)c1 [TRIAC, triodothyroacetic acid]
[3]; water-injected oocytes
  inhibition of T3 uptake, in words: did not inhibit
  inhibition of tryptophan uptake, in words: did not inhibit

## Xenopus laevis IU12 light-chain (lc) permease
[6]
  uptake of [3H]phenylalanine and [3H]tryptophan into Xenopus oocytes (pmol/oocyte.h): 120
  uptake of [125I]T3 and [125I]T4 (0.1 µM) into Xenopus oocytes (times over control (T3)): 2.7

## N[C@@H](Cc1cc(I)c(Oc2ccc(O)c(I)c2)c(I)c1)C(=O)O [T3, tri-iodothyronine]
[3]; 0.1 μM T3, water-injected oocytes
  control T3 uptake (absence of inhibitor): 22±3 fmol/oocyte.h

## N[C@@H](Cc1cc(I)c(Oc2cc(I)c(O)c(I)c2)c(I)c1)C(=O)O [T4, thyroxine]
[1]; 0.1 μM TH, n=5 batches of oocytes
  average increase in uptake over control (water- or IU12-injected oocytes): 2.1±0.5 times
[1]
  inhibition of 4F2hc-IU12 induced [3H]tryptophan uptake, in words: has not achieved statistical significance
  Vmax of 4F2hc-IU12 induced transport: 2.0±0.6 pmol/oocyte.h
  Km: 6.3 µM
  inhibition of 4F2hc-IU12 induced 0.1 μM TH (T3) uptake, in words: mutual cross-inhibition
